Key:
[1] = system: IL-6 production; experiment: LPS-induced IL-6 production in MonoMac-6 cells (ELISA); format: cell-based; conditions: Homo sapiens, MONO-MAC-6, 24 h, N.A.: not active at the highest tested concentration (50 μM)
Experimental: Human MonoMac-6 monocyte/macrophage cells (Deutsche Sammlung von Mikroorganismen und Zellkulturen GmbH, Braunschweig, Germany) were cultured in RPMI 1640 medium containing 10% (v/v) FBS, 10 μg/mL bovine insulin, 100 μg/mL streptomycin, and 100 U/mL penicillin.
An IL-6 ELISA kit (BD Biosciences, San Jose, CA, USA) was used to assess the effect of selected compounds on IL-6 production. MonoMac-6 cells were plated in 96-well plates at a density of 2 × 10^5 cells/well in culture medium supplemented with 3% (v/v) endotoxin-free FBS. Cells were pretreated with test compound or DMSO for 30 min, followed by addition of 200 ng/mL LPS for 24 h. For selected compounds, the IC50 for cytokine production was calculated by plotting percentage inhibition against the logarithm of inhibitor concentration (at least five points).

[2] = system: proinflammatory cytokine production; experiment: Multiplex human cytokine ELISA, LPS-stimulated MonoMac-6 cells; format: cell-based; conditions: 10 μM compound, 24 h, versus DMSO-treated control
Description: A multiplex human cytokine ELISA kit from Anogen (Mississauga, ON, Canada) was used to evaluate various cytokines (IL-1α, IL-1β, IL-6, GM-CSF, MCP-1, IFN-γ, and TNF) in the supernatants of MonoMac-6 cells.

[3] = target: T1, NEK10 (Homo sapiens, UniProt Q6ZWH5); experiment: KINOMEscan; format: binding; conditions: for Kd: NEK10, N.B.: no binding at concentrations up to 30 µM
T1 construct: purchased Eurofins Pharma Discovery (KINOMEscan)
T1 sequence (Q6ZWH5 1-1172): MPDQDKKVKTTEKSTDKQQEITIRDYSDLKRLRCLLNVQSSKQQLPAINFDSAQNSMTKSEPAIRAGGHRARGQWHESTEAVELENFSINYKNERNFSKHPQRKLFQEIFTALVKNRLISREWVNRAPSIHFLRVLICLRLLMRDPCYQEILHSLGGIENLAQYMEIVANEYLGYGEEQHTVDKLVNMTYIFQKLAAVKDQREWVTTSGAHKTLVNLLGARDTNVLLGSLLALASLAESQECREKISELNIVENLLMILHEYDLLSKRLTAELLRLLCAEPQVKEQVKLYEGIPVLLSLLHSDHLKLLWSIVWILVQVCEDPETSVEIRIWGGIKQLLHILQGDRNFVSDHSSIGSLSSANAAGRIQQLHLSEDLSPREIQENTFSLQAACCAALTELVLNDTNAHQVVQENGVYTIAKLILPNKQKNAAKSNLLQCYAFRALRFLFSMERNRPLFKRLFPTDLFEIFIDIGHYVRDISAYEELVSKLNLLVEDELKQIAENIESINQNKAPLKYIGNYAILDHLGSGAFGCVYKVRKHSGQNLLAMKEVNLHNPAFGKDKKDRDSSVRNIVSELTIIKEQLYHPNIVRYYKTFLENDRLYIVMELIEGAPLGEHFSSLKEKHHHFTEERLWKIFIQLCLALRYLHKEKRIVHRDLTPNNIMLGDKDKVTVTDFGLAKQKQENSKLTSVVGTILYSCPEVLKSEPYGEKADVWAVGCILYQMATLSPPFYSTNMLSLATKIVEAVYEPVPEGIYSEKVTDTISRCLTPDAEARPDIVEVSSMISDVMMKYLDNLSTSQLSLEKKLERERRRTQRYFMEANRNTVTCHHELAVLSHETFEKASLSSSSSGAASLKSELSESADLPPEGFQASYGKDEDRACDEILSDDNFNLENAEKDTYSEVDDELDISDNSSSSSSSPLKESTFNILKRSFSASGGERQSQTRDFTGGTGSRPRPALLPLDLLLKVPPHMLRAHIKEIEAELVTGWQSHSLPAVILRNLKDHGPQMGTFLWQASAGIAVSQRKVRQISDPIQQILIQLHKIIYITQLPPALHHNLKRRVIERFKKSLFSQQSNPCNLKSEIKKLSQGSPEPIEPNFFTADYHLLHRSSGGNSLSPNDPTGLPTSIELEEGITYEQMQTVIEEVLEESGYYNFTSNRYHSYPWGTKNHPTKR
Experimental: (§1) Kinase profiling was performed by KINOMEscan (Eurofins Pharma Discovery, San Diego, CA, USA), using a panel of 423 protein kinases, as described previously. Compounds were submitted for dissociation constant (Kd) determination toward several target kinases using KINOMEscan. […] Binding reactions were performed at room temperature for 1 h, and the fraction of kinase not bound to the test compound was determined by capture with an immobilized affinity ligand and quantified by quantitative polymerase chain reaction. The primary screening at fixed concentrations of the compound was performed in duplicate. For dissociation constant Kd determination, a 12-point half-log dilution series (a maximum concentration of 33 μM) was used.

[4] = target: T2, PIM1 (Homo sapiens, UniProt P11309); experiment: KINOMEscan; format: binding; conditions: for Kd: PIM1, N.B.: no binding at concentrations up to 30 µM
T2 construct: purchased Eurofins Pharma Discovery (KINOMEscan)
Experimental: as §1

[5] = target: T3, PFTAIRE2 (Homo sapiens, UniProt Q96Q40); experiment: KINOMEscan; format: binding
T3 construct: purchased Eurofins DiscoverX KINOMEscan
Experimental: as §1

[6] = target: T4, FAK (Homo sapiens, UniProt Q05397); experiment: KINOMEscan; format: binding
T4 construct: purchased Eurofins DiscoverX KINOMEscan
Experimental: as §1

[7] = target: T5, MST3 (Homo sapiens, UniProt Q9Y6E0); experiment: KINOMEscan; format: binding
T5 construct: purchased Eurofins DiscoverX KINOMEscan
Experimental: as §1

[8] = target: T6, CAMK2A (Homo sapiens, UniProt Q9UQM7); experiment: KINOMEscan; format: binding
T6 construct: purchased Eurofins DiscoverX KINOMEscan
Experimental: as §1

[9] = target: T7, ERBB4 (Homo sapiens, UniProt Q15303); experiment: KINOMEscan; format: binding
T7 construct: purchased Eurofins DiscoverX KINOMEscan
Experimental: as §1

[10] = target: T8, MKNK1 (Homo sapiens, UniProt Q9BUB5); experiment: KINOMEscan; format: binding
T8 construct: purchased Eurofins DiscoverX KINOMEscan
Experimental: as §1

[11] = target: T9, GSK3B (Homo sapiens, UniProt P49841); experiment: KINOMEscan; format: binding
T9 construct: purchased Eurofins DiscoverX KINOMEscan
Experimental: as §1

[12] = target: T10, ERK8 (Homo sapiens, UniProt Q8TD08); experiment: KINOMEscan; format: binding
T10 construct: purchased Eurofins DiscoverX KINOMEscan
Experimental: as §1

[13] = target: T11, DMPK2 (Homo sapiens, UniProt Q6DT37); experiment: KINOMEscan; format: binding
T11 construct: purchased Eurofins DiscoverX KINOMEscan
Experimental: as §1

[14] = target: T12, GAK (Homo sapiens, UniProt O14976); experiment: KINOMEscan; format: binding
T12 construct: purchased Eurofins DiscoverX KINOMEscan
Experimental: as §1

[15] = target: T13, MAPKAPK2 (Homo sapiens, UniProt P49137); experiment: KINOMEscan; format: binding
T13 construct: purchased Eurofins DiscoverX KINOMEscan
Experimental: as §1

[16] = target: T14, DDR2 (Homo sapiens, UniProt Q16832); experiment: KINOMEscan; format: binding
T14 construct: purchased Eurofins DiscoverX KINOMEscan
Experimental: as §1

[17] = target: T15, LATS2 (Homo sapiens, UniProt Q9NRM7); experiment: KINOMEscan; format: binding
T15 construct: purchased Eurofins DiscoverX KINOMEscan
Experimental: as §1

T2 sequence (P11309 whole entry): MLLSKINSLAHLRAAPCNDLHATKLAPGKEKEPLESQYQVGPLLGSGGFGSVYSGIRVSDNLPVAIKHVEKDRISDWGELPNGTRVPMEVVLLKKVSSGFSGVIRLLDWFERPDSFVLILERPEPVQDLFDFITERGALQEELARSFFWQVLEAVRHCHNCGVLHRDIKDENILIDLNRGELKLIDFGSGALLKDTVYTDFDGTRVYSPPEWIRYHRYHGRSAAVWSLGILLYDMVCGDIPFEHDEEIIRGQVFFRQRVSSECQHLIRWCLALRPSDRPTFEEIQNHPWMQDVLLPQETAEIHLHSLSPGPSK
T6 sequence (Q9UQM7 whole entry): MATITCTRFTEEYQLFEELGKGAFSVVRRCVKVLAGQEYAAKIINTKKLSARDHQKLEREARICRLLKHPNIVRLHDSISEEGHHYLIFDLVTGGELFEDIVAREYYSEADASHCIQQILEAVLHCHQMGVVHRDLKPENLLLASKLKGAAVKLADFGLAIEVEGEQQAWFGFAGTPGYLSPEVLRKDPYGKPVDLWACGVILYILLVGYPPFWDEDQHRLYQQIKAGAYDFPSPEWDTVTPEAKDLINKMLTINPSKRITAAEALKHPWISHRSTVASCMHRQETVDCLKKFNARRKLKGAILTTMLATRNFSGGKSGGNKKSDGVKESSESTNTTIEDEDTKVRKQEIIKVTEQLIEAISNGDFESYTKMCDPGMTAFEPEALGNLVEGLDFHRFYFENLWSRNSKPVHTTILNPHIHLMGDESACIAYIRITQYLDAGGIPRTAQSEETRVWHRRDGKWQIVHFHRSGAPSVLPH
T12 sequence (O14976 whole entry): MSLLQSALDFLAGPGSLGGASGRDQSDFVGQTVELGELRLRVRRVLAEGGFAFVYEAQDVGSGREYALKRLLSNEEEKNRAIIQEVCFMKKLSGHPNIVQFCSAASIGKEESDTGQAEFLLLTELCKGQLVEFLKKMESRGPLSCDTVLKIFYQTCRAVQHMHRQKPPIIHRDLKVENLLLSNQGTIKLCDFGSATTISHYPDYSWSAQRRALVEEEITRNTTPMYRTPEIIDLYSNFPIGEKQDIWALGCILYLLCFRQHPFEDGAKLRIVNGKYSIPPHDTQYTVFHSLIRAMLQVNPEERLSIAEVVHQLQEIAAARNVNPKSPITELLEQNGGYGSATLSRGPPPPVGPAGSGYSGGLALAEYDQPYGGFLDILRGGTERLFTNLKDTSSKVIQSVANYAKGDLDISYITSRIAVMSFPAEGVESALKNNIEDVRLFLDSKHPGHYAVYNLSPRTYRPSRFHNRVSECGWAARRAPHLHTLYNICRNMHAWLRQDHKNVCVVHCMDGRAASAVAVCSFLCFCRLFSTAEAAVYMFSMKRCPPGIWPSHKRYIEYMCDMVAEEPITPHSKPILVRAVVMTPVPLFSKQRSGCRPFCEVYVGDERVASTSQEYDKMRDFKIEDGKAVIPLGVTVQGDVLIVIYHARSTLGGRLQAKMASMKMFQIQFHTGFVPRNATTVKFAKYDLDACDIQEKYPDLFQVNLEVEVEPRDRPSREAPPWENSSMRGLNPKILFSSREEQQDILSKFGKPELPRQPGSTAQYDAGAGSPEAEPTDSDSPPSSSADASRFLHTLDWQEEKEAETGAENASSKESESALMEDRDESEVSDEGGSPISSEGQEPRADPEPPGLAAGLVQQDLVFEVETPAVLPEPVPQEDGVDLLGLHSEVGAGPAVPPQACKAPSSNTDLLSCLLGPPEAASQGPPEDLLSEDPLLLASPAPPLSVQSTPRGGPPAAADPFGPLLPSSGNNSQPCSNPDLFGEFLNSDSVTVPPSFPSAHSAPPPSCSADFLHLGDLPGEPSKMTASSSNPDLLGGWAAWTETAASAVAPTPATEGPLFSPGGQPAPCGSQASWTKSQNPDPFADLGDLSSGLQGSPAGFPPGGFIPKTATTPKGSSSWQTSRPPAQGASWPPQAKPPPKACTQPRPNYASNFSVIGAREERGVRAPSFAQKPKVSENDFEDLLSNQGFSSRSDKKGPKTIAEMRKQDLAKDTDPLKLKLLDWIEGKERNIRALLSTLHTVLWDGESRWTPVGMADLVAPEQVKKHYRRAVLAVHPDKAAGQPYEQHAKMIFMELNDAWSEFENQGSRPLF
T10 sequence (Q8TD08 whole entry): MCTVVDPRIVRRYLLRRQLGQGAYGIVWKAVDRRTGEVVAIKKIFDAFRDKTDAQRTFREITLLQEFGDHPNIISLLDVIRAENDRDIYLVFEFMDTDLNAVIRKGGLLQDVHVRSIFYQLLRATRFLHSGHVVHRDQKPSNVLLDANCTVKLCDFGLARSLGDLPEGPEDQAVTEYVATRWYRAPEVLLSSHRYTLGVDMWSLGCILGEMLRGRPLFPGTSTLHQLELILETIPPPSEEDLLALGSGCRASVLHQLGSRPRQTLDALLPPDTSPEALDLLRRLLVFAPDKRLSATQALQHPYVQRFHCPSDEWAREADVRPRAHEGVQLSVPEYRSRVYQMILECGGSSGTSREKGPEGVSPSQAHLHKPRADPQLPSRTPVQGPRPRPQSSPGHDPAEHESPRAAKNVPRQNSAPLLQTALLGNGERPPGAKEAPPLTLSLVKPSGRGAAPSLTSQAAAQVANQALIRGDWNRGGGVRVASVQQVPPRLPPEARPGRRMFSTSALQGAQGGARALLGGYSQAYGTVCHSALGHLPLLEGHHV
T5 sequence (Q9Y6E0 whole entry): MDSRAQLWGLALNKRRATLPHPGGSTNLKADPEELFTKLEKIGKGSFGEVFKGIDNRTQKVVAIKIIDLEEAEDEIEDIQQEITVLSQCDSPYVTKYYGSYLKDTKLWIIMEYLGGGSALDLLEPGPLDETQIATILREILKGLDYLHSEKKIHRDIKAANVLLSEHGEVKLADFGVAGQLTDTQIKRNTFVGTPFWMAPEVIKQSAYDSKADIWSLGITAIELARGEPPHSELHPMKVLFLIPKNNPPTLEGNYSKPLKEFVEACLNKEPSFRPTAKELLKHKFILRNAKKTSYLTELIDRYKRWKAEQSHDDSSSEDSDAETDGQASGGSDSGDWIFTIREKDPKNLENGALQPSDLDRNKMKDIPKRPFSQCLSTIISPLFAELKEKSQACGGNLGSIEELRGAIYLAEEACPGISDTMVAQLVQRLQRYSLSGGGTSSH
T11 sequence (Q6DT37 whole entry): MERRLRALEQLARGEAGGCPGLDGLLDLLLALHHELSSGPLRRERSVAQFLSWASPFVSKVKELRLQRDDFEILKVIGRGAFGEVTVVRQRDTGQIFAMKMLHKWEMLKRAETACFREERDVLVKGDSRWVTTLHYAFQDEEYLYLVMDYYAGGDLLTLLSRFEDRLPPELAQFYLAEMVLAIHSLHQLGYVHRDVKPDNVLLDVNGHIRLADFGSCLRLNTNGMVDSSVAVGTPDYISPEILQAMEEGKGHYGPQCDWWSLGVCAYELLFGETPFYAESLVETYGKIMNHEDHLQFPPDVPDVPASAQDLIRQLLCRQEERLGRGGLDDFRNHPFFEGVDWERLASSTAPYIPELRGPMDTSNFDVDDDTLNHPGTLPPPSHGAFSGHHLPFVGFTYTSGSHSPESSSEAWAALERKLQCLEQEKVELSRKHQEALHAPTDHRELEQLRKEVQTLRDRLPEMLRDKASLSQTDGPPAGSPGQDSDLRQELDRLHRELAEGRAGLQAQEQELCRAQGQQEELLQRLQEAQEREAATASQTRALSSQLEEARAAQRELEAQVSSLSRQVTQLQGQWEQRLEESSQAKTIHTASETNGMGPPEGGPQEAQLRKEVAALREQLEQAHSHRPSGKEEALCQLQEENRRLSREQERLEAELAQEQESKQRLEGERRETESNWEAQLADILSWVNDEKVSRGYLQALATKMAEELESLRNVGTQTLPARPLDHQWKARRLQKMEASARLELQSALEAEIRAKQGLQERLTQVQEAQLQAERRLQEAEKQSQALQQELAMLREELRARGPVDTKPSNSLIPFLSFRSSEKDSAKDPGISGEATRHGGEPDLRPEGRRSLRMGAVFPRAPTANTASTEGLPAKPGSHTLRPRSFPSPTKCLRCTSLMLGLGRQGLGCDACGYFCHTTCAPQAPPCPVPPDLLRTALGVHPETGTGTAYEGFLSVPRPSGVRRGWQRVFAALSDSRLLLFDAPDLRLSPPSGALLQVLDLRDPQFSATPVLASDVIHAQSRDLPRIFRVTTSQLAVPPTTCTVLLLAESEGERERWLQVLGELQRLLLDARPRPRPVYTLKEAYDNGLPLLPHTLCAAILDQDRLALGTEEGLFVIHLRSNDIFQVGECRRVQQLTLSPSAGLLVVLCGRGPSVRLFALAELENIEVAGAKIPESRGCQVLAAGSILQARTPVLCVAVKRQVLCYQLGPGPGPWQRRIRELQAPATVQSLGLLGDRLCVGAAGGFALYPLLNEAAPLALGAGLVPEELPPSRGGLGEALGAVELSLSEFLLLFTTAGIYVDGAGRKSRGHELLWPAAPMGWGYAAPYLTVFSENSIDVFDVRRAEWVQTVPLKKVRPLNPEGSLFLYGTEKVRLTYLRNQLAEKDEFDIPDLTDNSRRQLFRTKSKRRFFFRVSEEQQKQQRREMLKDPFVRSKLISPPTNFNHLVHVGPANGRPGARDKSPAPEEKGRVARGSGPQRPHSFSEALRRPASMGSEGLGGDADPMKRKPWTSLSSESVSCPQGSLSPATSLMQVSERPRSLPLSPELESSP
T13 sequence (P49137 whole entry): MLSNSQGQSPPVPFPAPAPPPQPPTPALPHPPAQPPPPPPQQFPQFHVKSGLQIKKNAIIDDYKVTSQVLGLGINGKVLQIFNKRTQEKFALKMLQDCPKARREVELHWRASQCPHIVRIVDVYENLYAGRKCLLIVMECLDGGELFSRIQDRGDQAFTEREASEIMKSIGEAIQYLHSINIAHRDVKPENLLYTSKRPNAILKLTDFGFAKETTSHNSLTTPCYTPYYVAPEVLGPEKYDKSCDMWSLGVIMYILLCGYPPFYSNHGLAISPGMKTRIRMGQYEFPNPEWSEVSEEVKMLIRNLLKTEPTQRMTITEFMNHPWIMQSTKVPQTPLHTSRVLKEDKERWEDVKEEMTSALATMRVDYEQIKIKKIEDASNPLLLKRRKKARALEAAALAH

| SMILES | IC50 [1] [nM] | inhibition of secretion of IL-1α, IL-1β, IL-6, TNF and MCP-1 [2] | Kd [3] [nM] | Kd [4] [nM] | inhibition at 10 µM [5] [%] | inhibition at 10 µM [6] [%] | inhibition at 10 µM ([3]; 10 μM) [%] | inhibition at 10 µM [7] [%] | inhibition at 10 µM [8] [%] | inhibition at 10 µM [9] [%] | inhibition at 10 µM [10] [%] | inhibition at 10 µM [11] [%] | inhibition at 10 µM ([4]; 10 μM) [%] | inhibition at 10 µM [12] [%] | inhibition at 10 µM [13] [%] | inhibition at 10 µM [14] [%] | inhibition at 10 µM [15] [%] | inhibition at 10 µM [16] [%] | inhibition at 10 µM [17] [%] |
| --- | --- | --- | --- | --- | --- | --- | --- | --- | --- | --- | --- | --- | --- | --- | --- | --- | --- | --- | --- |
| O=C1Nc2c(ccc3c2CCCC3)C1=NO [Compound 5a, 3-(Hydroxyimino)-1,3,6,7,8,9-hexahydro-2H-benzo[g]indol-2-one] | 48300 ± 4400 | less effective | 3200 ± 1000 | 1800 ± 100 |  |  |  |  |  |  |  |  |  |  |  |  |  |  |  |
| O=C1Nc2c(cc([N+](=O)[O-])c3c2CCCC3)C1=NO [Compound 5d, 3-(Hydroxyimino)-5-nitro-1,3,6,7,8,9-hexahydro-2H-benzo[g]indol-2-one] | 12600 ± 3200 | inhibited | 660 ± 71 | 122 ± 54 | 6 | 19 | 100 | 62 | 71 | 4 | 72 | 29 | 98.2 | 50 | 3 | 49 | 9 | 0 | 28 |

Reference: PMC12300041, “Tricyclic Isatin Derivatives as Anti-Inflammatory Compounds with High Kinase Binding Affinity” (Molecules, 2025)
